Experimental data: PubChem BioAssay AID248 (DTP/NCI, 2004)
Where “and” joins values, the source holds several entries; their conditions need not be identical. Equal entries are not always repeated. Inconclusive results and toxic doses are left out. Cut-off read from the data, not from the text of the source: active = T/C of 150% or more; inactive = T/C below 125%.

Tested on: L1210 leukemia ip in BDF1 mice, survival T/C
Assay: NCI In Vivo Anticancer Drug Screen. Data for tumor model L1210 Leukemia (intraperitoneal) in B6D2F1 (BDF1) mice
Conditions: endpoint: mean survival time, higher = longer survival
How it was run: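 Read-out is survival time, reported as the treated-group measurement over the vehicle-control measurement.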

[1] = dose: 100.0 mg/kg/injection, schedule: Q04DX002 (ip), vehicle: Klucel (hydroxypropylcellulose) (HPC)
[2] = dose: 200.0 mg/kg/injection, schedule: Q04DX002 (ip), vehicle: Klucel (hydroxypropylcellulose) (HPC)
[3] = dose: 100.0 mg/kg/injection, schedule: Q04DX003 (ip), vehicle: saline with Tween-80
[4] = dose: 200.0 mg/kg/injection, schedule: Q04DX003 (ip), vehicle: saline with Tween-80
[5] = dose: 400.0 mg/kg/injection, schedule: Q04DX003 (ip), vehicle: saline with Tween-80
[6] = dose: 50.0 mg/kg/injection, schedule: Q01DX001 (ip), vehicle: saline
[7] = dose: 100.0 mg/kg/injection, schedule: Q01DX001 (ip), vehicle: saline
[8] = dose: 200.0 mg/kg/injection, schedule: Q01DX001 (ip), vehicle: saline
[9] = dose: 100.0 mg/kg/injection, schedule: Q04DX003 (ip), vehicle: saline
[10] = dose: 200.0 mg/kg/injection, schedule: Q04DX003 (ip), vehicle: saline
[11] = dose: 100.0 mg/kg/injection, schedule: Q01DX001 (ip), vehicle: carboxymethylcellulose (CMC)
[12] = dose: 200.0 mg/kg/injection, schedule: Q01DX001 (ip), vehicle: carboxymethylcellulose (CMC)
[13] = dose: 400.0 mg/kg/injection, schedule: Q01DX001 (ip), vehicle: carboxymethylcellulose (CMC)
[14] = dose: 100.0 mg/kg/injection, schedule: Q01DX009 (ip), vehicle: Klucel (hydroxypropylcellulose) (HPC)
[15] = dose: 200.0 mg/kg/injection, schedule: Q01DX009 (ip), vehicle: Klucel (hydroxypropylcellulose) (HPC)
[16] = dose: 400.0 mg/kg/injection, schedule: Q01DX009 (ip), vehicle: Klucel (hydroxypropylcellulose) (HPC)
[17] = dose: 100.0 mg/kg/injection, schedule: Q04DX003 (ip), vehicle: Klucel (hydroxypropylcellulose) (HPC)
[18] = dose: 200.0 mg/kg/injection, schedule: Q04DX003 (ip), vehicle: Klucel (hydroxypropylcellulose) (HPC)
[19] = dose: 400.0 mg/kg/injection, schedule: Q04DX003 (ip), vehicle: Klucel (hydroxypropylcellulose) (HPC)
[20] = dose: 5.0 mg/kg/injection, schedule: Q01DX009 (ip), vehicle: saline
[21] = dose: 10.0 mg/kg/injection, schedule: Q01DX009 (ip), vehicle: saline
[22] = dose: 20.0 mg/kg/injection, schedule: Q01DX009 (ip), vehicle: saline
[23] = dose: 40.0 mg/kg/injection, schedule: Q01DX009 (ip), vehicle: saline
[24] = dose: 100.0 mg/kg/injection, schedule: Q01DX009 (ip), vehicle: saline
[25] = dose: 200.0 mg/kg/injection, schedule: Q01DX009 (ip), vehicle: saline

Measured: T/C

CCCCCCCCN=[N+](C)[O-]
inactive: [1] 97 % of control | [2] 93 % of control

CC(=O)CC(=O)Nc1ccc(N=Nc2ccccc2)cc1
inactive: [3] 93 % of control | [4] 91 % of control | [5] 91 % of control

CCOC(=O)NP(=O)(NC(=O)OCC)NC(=O)OCC
inactive: [6] 106 % of control | [7] 104 % of control | [8] 93 % of control | dose: 400.0 mg/kg/injection, schedule: Q01DX001 (ip), vehicle: saline 106 % of control

O=S(=O)(O)N(O)S(=O)(=O)O
inactive: dose: 100.0 mg/kg/injection, schedule: Q04DX002 (ip), vehicle: saline 97 % of control | [9] 97 % of control | dose: 200.0 mg/kg/injection, schedule: Q04DX002 (ip), vehicle: saline 97 % of control | [10] 90 % of control | dose: 400.0 mg/kg/injection, schedule: Q04DX002 (ip), vehicle: saline 102 % of control

CC1(C)OC(COC(=O)c2ccccc2)C2OC(C)(C)OC(COC(=O)c3ccccc3)C2O1 (centres undefined)
inactive: [11] 93 % of control | [12] 90 % of control | [13] 95 % of control

CCCCN(CCCC)C(=O)c1ccccc1C(=O)O
inactive: dose: 75.0 mg/kg/injection, schedule: Q01DX001 (ip), vehicle: saline 95 % of control | [1] 95 % of control | dose: 150.0 mg/kg/injection, schedule: Q01DX001 (ip), vehicle: saline 104 % of control | [2] 95 % of control | dose: 300.0 mg/kg/injection, schedule: Q01DX001 (ip), vehicle: saline 103 % of control

CCOc1ccc(NC(=O)Nc2ccccc2C(F)(F)F)cc1
inactive: [14] 89 % of control | [15] 96 % of control | [16] 100 % of control

Cc1ccc(C(=O)NS(=O)(=O)c2ccc(C)cc2)cc1
inactive: [14] 91 % of control | [17] 101 % of control | [15] 105 % of control | [18] 103 % of control | [19] 104 % of control

CC(C)NCC(C#N)C1CCCCC1 (centres undefined)
inactive: dose: 100.0 mg/kg/injection, schedule: Q01DX001 (ip), vehicle: saline with Tween-80 97 % of control | dose: 200.0 mg/kg/injection, schedule: Q01DX001 (ip), vehicle: saline with Tween-80 93 % of control | dose: 400.0 mg/kg/injection, schedule: Q01DX001 (ip), vehicle: saline with Tween-80 97 % of control

Cc1cccc(C)c1Nc1cc(=O)[nH]c(=O)[nH]1
inactive: dose: 75.0 mg/kg/injection, schedule: Q01DX001 (ip), vehicle: saline with Tween-80 106 % of control | dose: 150.0 mg/kg/injection, schedule: Q01DX001 (ip), vehicle: saline with Tween-80 89 % of control | dose: 300.0 mg/kg/injection, schedule: Q01DX001 (ip), vehicle: saline with Tween-80 96 % of control

CCN(CC)CCCC(C)Nc1ccnc2ccc(-c3ccccc3)cc12 (centres undefined)
inactive: dose: 5.0 mg/kg/injection, schedule: Q01DX001 (ip), vehicle: saline 100 % of control | dose: 10.0 mg/kg/injection, schedule: Q01DX001 (ip), vehicle: saline 100 % of control | dose: 20.0 mg/kg/injection, schedule: Q01DX001 (ip), vehicle: saline 91 % of control | dose: 40.0 mg/kg/injection, schedule: Q01DX001 (ip), vehicle: saline 96 % of control | dose: 80.0 mg/kg/injection, schedule: Q01DX001 (ip), vehicle: saline 104 % of control

COc1cc2cc3c4ccccc4cc[n+]3c(C)c2cc1OC (tested in a mixture with another compound)
inactive: dose: 2.5 mg/kg/injection, schedule: Q01DX009 (ip), vehicle: saline 102 % of control | [20] 110 % of control | [21] 115 % of control | [22] 121 % of control | [23] 118 % of control

CCN(CC)c1ccc(NC(=O)NC(C)C)cc1
inactive: dose: 50.0 mg/kg/injection, schedule: Q01DX009 (ip), vehicle: saline with Tween-80 101 % of control | dose: 100.0 mg/kg/injection, schedule: Q01DX009 (ip), vehicle: saline with Tween-80 108 % of control | [3] 105 % of control | dose: 200.0 mg/kg/injection, schedule: Q01DX009 (ip), vehicle: saline with Tween-80 97 % of control | [4] 103 % of control

S=C(SSC(=S)N1CCCCC1)N1CCCCC1
inactive: [9] 104 % of control | [10] 98 % of control | dose: 400.0 mg/kg/injection, schedule: Q04DX003 (ip), vehicle: saline 101 % of control

Cn1c(=O)c2c(nc(OCC3CCCO3)n2C)n(C)c1=O (centres undefined)
inactive: [7] 106 % of control | [8] 100 % of control

O=c1[nH]nc(CF)c(=O)[nH]1
inactive: [20] 107 % of control | dose: 6.0 mg/kg/injection, schedule: Q01DX009 (ip), vehicle: saline 108 % of control | [21] 116 % of control | dose: 11.0 mg/kg/injection, schedule: Q01DX Z (ip), vehicle: saline 111 % of control | dose: 12.0 mg/kg/injection, schedule: Q01DX009 (ip), vehicle: saline 112 % of control | dose: 14.0 mg/kg/injection, schedule: Q01DX009 (ip), vehicle: saline 104 % of control | dose: 16.0 mg/kg/injection, schedule: Q01DX Z (ip), vehicle: saline 111 % of control | [22] 105 % of control and 124 % of control | dose: 24.0 mg/kg/injection, schedule: Q01DX009 (ip), vehicle: saline 122 % of control | dose: 30.0 mg/kg/injection, schedule: Q01DX009 (ip), vehicle: saline 119 % of control | [23] 116 % of control | [6] 110 % of control | [7] 119 % of control

CC(=O)OC1CCC(CC2CCCCC2)CC1 (centres undefined)
inactive: dose: 50.0 mg/kg/injection, schedule: Q01DX009 (ip), vehicle: Klucel (hydroxypropylcellulose) (HPC) 94 % of control | [14] 100 % of control | [15] 100 % of control | [16] 93 % of control

CNC(=S)N/N=C/C(=N\NC(=S)NC)C(O)C(O)C(O)C(O)CO (centres undefined)
inactive: dose: 50.0 mg/kg/injection, schedule: Q01DX009 (ip), vehicle: saline 100 % of control | [7] 100 % of control | [24] 91 % of control | [8] 97 % of control | [25] 100 % of control

N#C/C(=C\c1ccncc1)c1csc2ccccc12
inactive: [3] 101 % of control | [4] 100 % of control | [5] 94 % of control

CC(=O)c1cc(C)c(O)c(C)c1
inactive: dose: 50.0 mg/kg/injection, schedule: Q01DX001 (ip), vehicle: carboxymethylcellulose (CMC) 107 % of control | [11] 89 % of control | [12] 94 % of control | [13] 91 % of control

O=C(N/N=C/c1ccncc1)c1ccccc1
inactive: [24] 112 % of control | [25] 112 % of control

O=C(c1ccccc1)C1C(C(=O)c2ccccc2)N1C1CCCCC1 (centres undefined)
inactive: [17] 91 % of control | [18] 91 % of control | [19] 96 % of control

COC(=O)C1=COC(C)C2CN3CCc4c([nH]c5cc(OC)ccc45)C3CC12 (centres undefined)
inactive: dose: 22.0 mg/kg/injection, schedule: Q01DX Z (ip), vehicle: other 100 % of control | dose: 44.0 mg/kg/injection, schedule: Q01DX Z (ip), vehicle: other 86 % of control

N#Cc1ccccc1-c1ccccc1C#N
inactive: [11] 105 % of control | [12] 107 % of control | [13] 107 % of control

O=[N+]([O-])c1ccc(NC(=S)NS(=O)(=O)c2ccccc2)c(Cl)c1
inactive: [14] 97 % of control | [15] 97 % of control | [16] 88 % of control

CC(=O)OCC1OC(N2c3ccccc3CC2C)C(OC(C)=O)C(OC(C)=O)C1OC(C)=O (centres undefined)
inactive: dose: 25.0 mg/kg/injection, schedule: Q01DX001 (ip), vehicle: saline 94 % of control | [6] 94 % of control | [7] 94 % of control

CC(=O)ONCCc1ccc(S(=O)(=O)F)cc1
inactive: [17] 105 % of control | [18] 96 % of control | [19] 98 % of control
